Source: patent US10047164B2, “Methods and compositions for the treatment of pancreatic cancer” (Opsona Therapeutics Ltd., priority 2012, dated 2018)

Experiments:
[1] = test system: KPC cell line orthotopic pancreatic tumours; conditions: treatment at the induction of tumours; over 49 days (FIG. 1); OPN-305 10 mg/kg i.v. once weekly, Gemcitabine 100 mg/kg i.p. twice weekly, Abraxane 10 mg/kg i.v. day 0
Description: A preclinical mouse model of pancreatic cancer was established where a KPC cell line derived from the genetically engineered ‘KPC’ mouse with pancreas-specific mutant Kras and mutant TP53 genetic background (LSL-KrasG12D; p53R172H, Pdx1-Cre) backcrossed several generations with C57Bl/6 mice was implanted as allograft, orthotopically in the pancreas of C57bl/6 (B6) mice. In brief, a subcutaneous tumour was first established by injecting 2.5 million cells under the skin of C57Bl/6 mice. Ten days later, the tumour was excised and chopped into smaller pieces, roughly 1 mm^3 in size, and implanted orthotopically into pancreas of C57Bl/6 mice. For orthotopic implantation into the pancreas, each mouse was anesthetized with 2.5% Avertin, 0.013 ml/g B.W. All surgical procedures were performed under aseptic conditions with use of sterile gloves and autoclaved instruments. The skin was disinfected with betadine followed by alcohol and this procedure was repeated twice. A left lateral oblique incision was made through the skin and then through the body wall just below the stomach. […] The growth of orthotopic tumours were measured over the period of 12-16 weeks by non-invasive ultrasound (Vevo2100, VisualSonic). […] The orthotopically implanted tumours were measured by ultrasound 5 days post-surgery and randomized into various treatment arms as below: • 1. […]

[2] = test system: pancreatic tumours in KPC mice; conditions: Science 2009; cited from earlier work
[3] = test system: advanced pancreatic cancer; conditions: patients with advanced pancreatic cancer; cited from earlier work

Compound	tumour volume [1]	tumours demonstrating a change in growth kinetics after treatment [2]	improvement in median survival duration [3]
OPN-305: humanized version of T2.5, a murine IgG1 anti-TLR2 antibody; described in WO2011/003925	reduced tumour volume to a greater extent than treatment with a combination of Gemcitabine+Abraxane		
Nc1ccn([C@@H]2O[C@H](CO)[C@@H](O)C2(F)F)c(=O)n1 [Gemcitabine]		12%	5 week
